{"source": "patent US20080076826A1", "about": "“POLYMORPHIC CRYSTAL OF 4'-{2-[ (1S, 2R) - 2- HYDROXY -2- (4-HYDROXYPHENYL) -1- METHYLETHYLAMINO] ETHOXY} - 3 - ISOPROPYL-3', 5' -DIMETHYLBIPHENYL - 4 - CARBOXYLIC ACID HYDROCHLORIDE” (KISSEI PHARMACEUTICAL CO., LTD., priority 2005, published 2008)", "type_in_all_cases": "physicochemical", "key": {"[1]": {"assay": "Solid stability (Test Example 1): purity after storage at 60° C., 75% relative humidity, 5 days", "conditions": "stored at 60° C. and relative humidity of 75% for 5 days; hydrochloride", "experimental": "Each of (1) amorphous biphenylcarboxylic acid hydrochloride (purity: 97.22%), (2) α type crystal of biphenylcarboxylic acid hydrochloride (purity: 99.56%) and (3) β type crystal of biphenylcarboxylic acid hydrochloride (purity: 99.84%) was stored at 60° C. and at a relative humidity of 75% for 5 days. Purities after the storage were (1) 94.99%, (2) 99.55% and (3) 99.65%, respectively."}, "[2]": {"assay": "Solid stability (Test Example 2): purity after storage for 8 weeks under four conditions", "procedure": "Each of (A) the α type crystal of biphenylcarboxylic acid hydrochloride (purity 99.8%) and (B) the γ type crystal of biphenylcarboxylic acid hydrochloride (purity 99.8%) were stored (1) at 40° C. for 8 weeks, (2) at 60° C. for 8 weeks, (3) at 40° C. and at a relative humidity of 75% for 8 weeks and (4) at 40° C. and at a relative humidity of 90% for 8 weeks."}, "[3]": {"assay": "Crystal form stability during preservation under usual conditions or medicine preparation steps", "conditions": "preservation under usual conditions (25° C., 60% relative humidity) or during pressurization, pulverization and like preparation steps"}, "[4]": {"conditions": "stored at 40° C. and relative humidity of 75% for 8 weeks"}, "[5]": {"conditions": "stored at 40° C. and relative humidity of 90% for 8 weeks"}}, "data": [{"compound": "Cc1cc(-c2ccc(C(=O)O)c(C(C)C)c2)cc(C)c1OCCN[C@@H](C)[C@H](O)c1ccc(O)cc1.Cl", "note": "[amorphous biphenylcarboxylic acid hydrochloride] [4′-{2-[(1S,2R)-2-hydroxy-2-(4-hydroxyphenyl)-1-methylethylamino]ethoxy}-3-isopropyl-3′,5′-dimethylbiphenyl-4-carboxylic acid hydrochloride, reference compound]", "values": [{"measurement": "Purity after the storage", "setting": "[1]", "result": 94.99, "unit": "%"}]}, {"compound": "Cc1cc(-c2ccc(C(=O)O)c(C(C)C)c2)cc(C)c1OCCN[C@@H](C)[C@H](O)c1ccc(O)cc1.Cl", "note": "[α type crystal, 4′-{2-[(1S,2R)-2-hydroxy-2-(4-hydroxyphenyl)-1-methylethylamino]ethoxy}-3-isopropyl-3′,5′-dimethylbiphenyl-4-carboxylic acid hydrochloride]", "values": [{"measurement": "Purity after the storage", "setting": "[2]; [4]", "result": 99.58, "unit": "%"}, {"measurement": "Purity after the storage", "setting": "[2]; [5]", "result": 99.51, "unit": "%"}, {"measurement": "Purity after the storage", "setting": "[2]; stored at 40° C. for 8 weeks", "result": 99.79, "unit": "%"}, {"measurement": "Purity after the storage", "setting": "[2]; stored at 60° C. for 8 weeks", "result": 99.78, "unit": "%"}, {"measurement": "Purity after the storage", "setting": "[1]", "result": 99.55, "unit": "%"}, {"measurement": "Change of crystal form", "setting": "[3]", "result": "do not cause mutual changes in the crystal forms"}]}, {"compound": "Cc1cc(-c2ccc(C(=O)O)c(C(C)C)c2)cc(C)c1OCCN[C@@H](C)[C@H](O)c1ccc(O)cc1.Cl", "note": "[β type crystal, 4′-{2-[(1S,2R)-2-hydroxy-2-(4-hydroxyphenyl)-1-methylethylamino]ethoxy}-3-isopropyl-3′,5′-dimethylbiphenyl-4-carboxylic acid hydrochloride]", "values": [{"measurement": "Purity after the storage", "setting": "[1]", "result": 99.65, "unit": "%"}, {"measurement": "Change of crystal form", "setting": "[3]", "result": "do not cause mutual changes in the crystal forms"}]}, {"compound": "4′-{2-[(1S,2R)-2-hydroxy-2-(4-hydroxyphenyl)-1-methylethylamino]ethoxy}-3-isopropyl-3′,5′-dimethylbiphenylcarboxylic acid hydrochloride [γ type crystal]", "values": [{"measurement": "Purity after the storage", "setting": "[2]; [4]", "result": 99.87, "unit": "%"}, {"measurement": "Purity after the storage", "setting": "[2]; [5]", "result": 98.20, "unit": "%"}, {"measurement": "Purity after the storage", "setting": "[2]; stored at 40° C. for 8 weeks", "result": 99.82, "unit": "%"}, {"measurement": "Purity after the storage", "setting": "[2]; stored at 60° C. for 8 weeks", "result": 99.88, "unit": "%"}, {"measurement": "Change of crystal form", "setting": "[3]", "result": "do not cause mutual changes in the crystal forms"}]}]}
